Assay [1] relates to primary FSHD muscle cells (09Abic). Briefly: JQ1 treatment time course, gene expression. It is filed as cell-based, human. From the text:
(§1) DUX4 expression is induced during myogenic differentiation, and blocking or slowing down this process, as the case with JQ1, give the appearance of inhibiting DUX4 expression, when in fact it is merely altering the kinetics of myoginc differentiation. Importantly, these genes are misregulated by JQ1 in both FSHD and healthy human skeletal muscle myoblasts (HSMM) (FIG. 17). Therefore, JQ1 is an example of a non-specific small molecule and not appropriate for use as an FSHD therapeutic.

Assay [2] concerns healthy human skeletal muscle myoblasts (HSMM). Description: JQ1 treatment of healthy myoblasts, myogenic gene expression. Format: cell-based. The conditions noted are these: FIG. 17.
Excerpt: as §1

Turning to `Cc1sc2c(c1C)C(c1ccc(Cl)cc1)=N[C@@H](CC(=O)OC(C)(C)C)c1nnc(C)n1-2` [JQ1], in assay [1] (09Abic), the “DUX4 expression (in words)” value is “appears to inhibit”; the “expression of downstream genes TRIM43 and ZSCAN4 (in words)” value was “appears to inhibit”. In assay [1] (time course of treatment, FIG. 16), the “expression of myogenic regulatory genes myogenin (Myog), myoD, myosin heavy chain (MyHC), and myostatin (Myost) (in words)” value is recorded as “inhibiting the expression”. Besides, the “myogenic genes (Myog, myoD, MyHC) (in words)” value in assay [2] is “misregulated”.

(Values after patent publication US11963975B2, “Therapeutic targets for facioscapulohumeral muscular dystrophy” (University of Massachusetts, priority 2016, dated 2024).)
